Experimental data reported in patent US9624209B2, “Substituted phenylureas and phenylamides as vanilloid receptor ligands” (Gruenenthal GmbH, priority 2009, dated 2017).

These compounds were tested against T1, vanilloid receptor 1 (VR1/TRPV1 receptor) (Homo sapiens, UniProt Q8NER1) (assay: VR1/TRPV1 receptor affinity, capsaicin stimulus (human)). Conditions: @ 5 μM, Tables 8-12, read-out: (f) Ki (human being) [nM] Cap: inhibition (as a percentage).
T1 construct: expressed in transfected cells; host or cells: CHO K1 cells (ECACC), stably transfected
T1 sequence (Q8NER1 whole entry): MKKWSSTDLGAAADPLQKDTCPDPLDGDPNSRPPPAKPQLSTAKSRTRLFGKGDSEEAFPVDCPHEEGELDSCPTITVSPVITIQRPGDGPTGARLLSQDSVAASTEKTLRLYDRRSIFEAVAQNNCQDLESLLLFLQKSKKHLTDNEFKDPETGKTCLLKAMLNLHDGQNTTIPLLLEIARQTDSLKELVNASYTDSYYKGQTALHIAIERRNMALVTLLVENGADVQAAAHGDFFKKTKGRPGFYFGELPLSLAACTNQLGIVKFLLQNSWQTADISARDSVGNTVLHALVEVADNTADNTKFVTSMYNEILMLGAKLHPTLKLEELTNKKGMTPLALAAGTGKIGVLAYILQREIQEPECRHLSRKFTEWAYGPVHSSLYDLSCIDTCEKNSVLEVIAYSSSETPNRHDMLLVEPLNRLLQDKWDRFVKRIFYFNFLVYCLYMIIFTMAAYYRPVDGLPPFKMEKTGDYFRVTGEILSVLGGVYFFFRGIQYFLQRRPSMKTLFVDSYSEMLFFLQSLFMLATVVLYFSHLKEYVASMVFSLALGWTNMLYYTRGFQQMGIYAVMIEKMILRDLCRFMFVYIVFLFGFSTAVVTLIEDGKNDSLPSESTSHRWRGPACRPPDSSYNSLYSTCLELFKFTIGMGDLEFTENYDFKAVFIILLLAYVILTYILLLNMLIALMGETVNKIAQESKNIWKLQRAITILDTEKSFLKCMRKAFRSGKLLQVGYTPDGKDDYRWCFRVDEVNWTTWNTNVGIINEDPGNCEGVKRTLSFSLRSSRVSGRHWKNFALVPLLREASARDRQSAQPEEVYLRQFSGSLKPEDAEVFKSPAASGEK
Type: cell-based, human being

inhibition at 5 µM [%] | Structure (SMILES)
18 | CN(C)Cc1ccc(NC(=O)NCc2cc(C(F)(F)F)nn2-c2cccc(Cl)c2)cc1F [Example B38, 1-[[2-(3-Chlorophenyl)-5-(trifluoromethyl)-2H-pyrazol-3-yl]-methyl]-3-[4-(dimethylaminomethyl)-3-fluoro-phenyl]-urea]
37 | NCc1ccc(NC(=O)NCc2cc(C(F)(F)F)nn2-c2cccc(Cl)c2)cc1F [Example B39, 1-[4-(Aminomethyl)-3-fluoro-phenyl]-3-[[2-(3-chlorophenyl)-5-(trifluoromethyl)-2H-pyrazol-3-yl]-methyl]-urea]

Same assay, conditions: Tables 8-12, read-out: (f) Ki (human being) [nM] Cap

Structure (SMILES) | Ki [nM]
CC(C(=O)NCc1cc(C(F)(F)F)nn1-c1cccc(Cl)c1)c1ccc(CN(C)S(C)(=O)=O)c(F)c1 (stereo not shown) [Example B29, N-[[2-(3-Chlorophenyl)-5-(trifluoromethyl)-2H-pyrazol-3-yl]-methyl]-2-[3-fluoro-4-[(methyl-methylsulfonyl-amino)-methyl]-phenyl]-propionamide] | 59
CC(C(=O)NCc1cc(C(C)(C)C)nn1-c1cccc(Cl)c1)c1ccc(CN(C)S(C)(=O)=O)c(F)c1 (stereo not shown) [Example B30, N-[[5-tert-Butyl-2-(3-chlorophenyl)-2H-pyrazol-3-yl]-methyl]-2-[3-fluoro-4-[(methyl-methylsulfonyl-amino)-methyl]-phenyl]-propionamide] | 39
CS(=O)(=O)NCc1ccc(CC(=O)NCc2cc(C(F)(F)F)nn2-c2cccc(F)c2)cc1F [Example B37, 2-[3-Fluoro-4-(methanesulfonamido-methyl)-phenyl]-N-[[2-(3-fluorophenyl)-5-(trifluoromethyl)-2H-pyrazol-3-yl]-methyl]-acetamide] | 46
CC(C)(C)c1cc(CNC(=O)Nc2ccc(CN)c(F)c2)n(-c2cccc(Cl)c2)n1 [Example B40, 1-[4-(Aminomethyl)-3-fluoro-phenyl]-3-[[5-tert-butyl-2-(3-chlorophenyl)-2H-pyrazol-3-yl]-methyl]-urea] | 92
NS(=O)(=O)NCc1ccc(NC(=O)NCc2cc(C(F)(F)F)nn2-c2cccc(Cl)c2)cc1F [Example B41, 1-[[2-(3-Chlorophenyl)-5-(trifluoromethyl)-2H-pyrazol-3-yl]methyl]-3-[3-fluoro-4-[(sulfamoylamino)-methyl]-phenyl]-urea] | 74
CC(C(=O)NCc1cc(C(F)(F)F)nn1-c1cccc(Cl)c1)c1ccc(CN)c(F)c1 (stereo not shown) [Example B42, 2-[4-(Aminomethyl)-3-fluoro-phenyl]-N-[[2-(3-chlorophenyl)-5-(trifluoromethyl)-2H-pyrazol-3-yl]-methyl]-propionamide] | 46
CS(=O)(=O)NCc1ccc(NC(=O)NCc2cc(C(F)(F)F)nn2-c2cccc(F)c2)cc1 [Example B44, 1-[[2-(3-Fluorophenyl)-5-(trifluoromethyl)-2H-pyrazol-3-yl]-methyl]-3-[4-(methanesulfonamido-methyl)-phenyl]-urea] | 44
CC(C)(C)c1cc(CNC(=O)Nc2ccc(CNS(C)(=O)=O)cc2)n(-c2cccc(F)c2)n1 [Example B45, 1-[[5-tert-Butyl-2-(3-fluorophenyl)-2H-pyrazol-3-yl]-methyl]-3-[4-(methanesulfonamido-methyl)-phenyl]-urea] | 31
CS(=O)(=O)NCc1ccc(NC(=O)NCc2cc(C(F)(F)F)nn2-c2cccc(F)c2)cc1F [Example B48, 1-[3-Fluoro-4-(methanesulfonamido-methyl)-phenyl]-3-[[2-(3-fluorophenyl)-5-(trifluoromethyl)-2H-pyrazol-3-yl]-methyl]-urea] | 40
CC(C)(C)c1cc(CNC(=O)Nc2ccc(CNS(C)(=O)=O)c(F)c2)n(-c2ccc(F)cc2)n1 [Example B53, 1-[[5-tert-Butyl-2-(4-fluorophenyl)-2H-pyrazol-3-yl]-methyl]-3-[3-fluoro-4-(methanesulfonamido-methyl)-phenyl]-urea] | 33
CC(C)(C)c1cc(CNC(=O)Nc2ccc(CNS(N)(=O)=O)cc2)n(-c2cccc(F)c2)n1 [Example B56, 1-[[5-tert-Butyl-2-(3-fluorophenyl)-2H-pyrazol-3-yl]-methyl]-3-[4-[(sulfamoylamino)-methyl]-phenyl]-urea] | 56
NS(=O)(=O)NCc1ccc(NC(=O)NCc2cc(C(F)(F)F)nn2-c2ccc(F)c(F)c2)cc1 [Example B57, 1-[[2-(3,4-Difluoro-phenyl)-5-(trifluoromethyl)-2H-pyrazol-3-yl]-methyl]-3-[4-[(sulfamoylamino)-methyl]-phenyl]-urea] | 58

The next lines start with the values.

Ki [nM] | Structure (SMILES)
27 | CS(=O)(=O)NCc1ccc(NC(=O)NCc2cc(C(F)(F)F)nn2-c2cccc(C(F)(F)F)c2)cc1F [Example B55, 1-[3-Fluoro-4-(methanesulfonamido-methyl)-phenyl]-3-[[5-(trifluoromethyl)-2-[3-(trifluoromethyl)phenyl]-2H-pyrazol-3-yl]-methyl]-urea]
25 | NS(=O)(=O)NCc1ccc(NC(=O)NCc2cc(C(F)(F)F)nn2-c2cccc(F)c2)cc1F [Example B60, 1-[[2-(3-Fluorophenyl)-5-(trifluoromethyl)-2H-pyrazol-3-yl]-methyl]-3-[3-fluoro-4-[(sulfamoylamino)-methyl]-phenyl]-urea]
16 | COc1cccc(-n2nc(C(F)(F)F)cc2CNC(=O)Nc2ccc(CNS(C)(=O)=O)c(F)c2)c1 [Example B58, 1-[3-Fluoro-4-(methanesulfonamido-methyl)-phenyl]-3-[[2-(3-methoxyphenyl)-5-(trifluoromethyl)-2H-pyrazol-3-yl]-methyl]-urea]
16 | CC(C)(C)c1cc(CNC(=O)Nc2ccc(CNS(N)(=O)=O)c(F)c2)n(-c2cccc(F)c2)n1 [Example B59, 1-[[5-tert-Butyl-2-(3-fluorophenyl)-2H-pyrazol-3-yl]-methyl]-3-[3-fluoro-4-[(sulfamoylamino)-methyl]-phenyl]-urea]
15 | CC(C)(C)c1cc(CNC(=O)Nc2ccc(CNS(C)(=O)=O)c(F)c2)n(-c2cccc(F)c2)n1 [Example B50, 1-[[5-tert-Butyl-2-(3-fluorophenyl)-2H-pyrazol-3-yl]-methyl]-3-[3-fluoro-4-(methanesulfonamido-methyl)-phenyl]-urea]
15 | CC(C)(C)c1cc(CNC(=O)Nc2ccc(CNS(C)(=O)=O)c(F)c2)n(-c2ccc(F)c(Cl)c2)n1 [Example B51, 1-[[5-tert-Butyl-2-(3-chloro-4-fluoro-phenyl)-2H-pyrazol-3-yl]-methyl]-3-[3-fluoro-4-(methanesulfonamido-methyl)-phenyl]-urea]
11 | CC(C)(C)c1cc(CNC(=O)Nc2ccc(CNS(C)(=O)=O)cc2)n(-c2cccc(Cl)c2)n1 [Example B28, 1-[[5-tert-Butyl-2-(3-chlorophenyl)-2H-pyrazol-3-yl]-methyl]-3-[4-(methanesulfonamido-methyl)-phenyl]-urea]
11 | CS(=O)(=O)NCc1ccc(NC(=O)NCc2cc(C(F)(F)F)nn2-c2ccc(F)c(F)c2)cc1F [Example B49, 1-[[2-(3,4-Difluoro-phenyl)-5-(trifluoromethyl)-2H-pyrazol-3-yl]-methyl]-3-[3-fluoro-4-(methanesulfonamido-methyl)-phenyl]-urea]
9 | CC(C)(C)c1cc(CNC(=O)Nc2ccc(CNS(C)(=O)=O)c(F)c2)n(-c2cccc(Cl)c2)n1 [Example B31, 1-[[5-tert-Butyl-2-(3-chlorophenyl)-2H-pyrazol-3-yl]-methyl]-3-[3-fluoro-4-(methanesulfonamido-methyl)-phenyl]-urea]
9 | NS(=O)(=O)NCc1ccc(NC(=O)NCc2cc(C(F)(F)F)nn2-c2cccc(Cl)c2)cc1 [Example B35, 1-[[2-(3-Chlorophenyl)-5-(trifluoromethyl)-2H-pyrazol-3-yl]-methyl]-3-[4-[(sulfamoylamino)-methyl]-phenyl]-urea]
9 | CC(C)(C)c1cc(CNC(=O)Nc2ccc(CNS(N)(=O)=O)c(F)c2)n(-c2cccc(Cl)c2)n1 [Example B46, 1-[[5-tert-Butyl-2-(3-chlorophenyl)-2H-pyrazol-3-yl]-methyl]-3-[3-fluoro-4-[(sulfamoylamino)-methyl]-phenyl]-urea]
9 | CS(=O)(=O)NCc1ccc(NC(=O)NCc2cc(C(F)(F)F)nn2-c2cccc(Cl)c2)cc1F [Example B52, 1-[[2-(3-Chlorophenyl)-5-(trifluoromethyl)-2H-pyrazol-3-yl]-methyl]-3-[3-fluoro-4-(methanesulfonamido-methyl)-phenyl]-urea]
8 | CS(=O)(=O)NCc1c(F)cc(NC(=O)NCc2cc(C(F)(F)F)nn2-c2cccc(Cl)c2)cc1F [Example B27, 1-[[2-(3-Chlorophenyl)-5-(trifluoromethyl)-2H-pyrazol-3-yl]-methyl]-3-[3,5-difluoro-4-(methanesulfonamido-methyl)-phenyl]-urea]
8 | CC(C)(C)c1cc(CNC(=O)Nc2ccc(CNS(C)(=O)=O)c(F)c2)n(-c2cccc(C(F)(F)F)c2)n1 [Example B54, 1-[[5-tert-Butyl-2-[3-(trifluoromethyl)phenyl]-2H-pyrazol-3-yl]-methyl]-3-[3-fluoro-4-(methanesulfonamido-methyl)-phenyl]-urea]
6 | CC(C)(C)c1cc(CNC(=O)Nc2ccc(CNS(N)(=O)=O)cc2)n(-c2cccc(Cl)c2)n1 [Example B36, 1-[[5-tert-Butyl-2-(3-chlorophenyl)-2H-pyrazol-3-yl]-methyl]-3-[4-[(sulfamoylamino)-methyl]-phenyl]-urea]
2 | CC(C)(C)c1cc(CNC(=O)Nc2cc(F)c(CNS(C)(=O)=O)c(F)c2)n(-c2cccc(Cl)c2)n1 [Example B32, 1-[[5-tert-Butyl-2-(3-chlorophenyl)-2H-pyrazol-3-yl]-methyl]-3-[3,5-difluoro-4-(methanesulfonamido-methyl)-phenyl]-urea]
1 | CC(C(=O)NCc1cc(C(C)(C)C)nn1-c1cccc(C(F)(F)F)c1)c1ccc(CNS(C)(=O)=O)c(F)c1 (stereo not shown) [Example B43, N-[[5-tert-Butyl-2-[3-(trifluoromethyl)phenyl]-2H-pyrazol-3-yl]-methyl]-2-[3-fluoro-4-(methanesulfonamido-methyl)-phenyl]-propionamide]
